Entries after “also recorded” stand apart in the source; their conditions may differ. In the oligonucleotide strings, read from the 5' end, every base follows the letter of its sugar. An asterisk marks phosphorothioate; unmarked linkages are phosphodiester. Other units and linkages are bracketed, terminal groups are in braces. A string of capitals states the bases alone. d = 2'-deoxy (DNA)
tested on: CD4+ Treg cells (Treg102, Treg164); experiment: Proliferation assay without DCs: Treg suppression of naive CD4+ T cell proliferation, anti-CD3-coated plates; type: cell-based, human; settings: absence of DCs; anti-CD3-coated plates; oligonucleotides 3 ug/ml in medium
Excerpt: Establishing Treg cell lines and purifying natural CD4^+ CD25^+ Treg cells CD4^+ Treg clones were established from CD4^+ tumor-infiltrating lymphocytes (TIL102 and TIL164) and maintained in RPMI 1640 medium containing 10% human AB serum and recombinant IL-2 (300 IU/ml) using methods well known in the art (See, e.g., H. Y. Wang et al., Immunity 20, 107-118 (2004)). Treg clones derived from TIL102 or TIL164 cells were pooled and designated Treg102 or Treg164. Naturally occurring CD4^+ CD25^+ Treg cells were obtained by sorting CD4^+ T cell populations from fresh PBMCs after staining with anti-CD4 and anti-CD25 antibodies. To obtain optimal expansion, the OKT3 expansion method was performed using methods well known in the art (See, e.g., H. Y. Wang et al., Immunity 20, 107-118 (2004)). T cell clones were maintained at a low IL-2 concentration (300 IU/ml). Melanoma cell lines and EBV-transformed B-cell lines used in this study were cultured in RPMI 1640 medium containing 10% FCS. Human embryonic kidney (HEK) 293 and Epstein-Barr virus (EBV)-transformed B cell lines were maintained in RPMI 1640 with 10% fetal calf serum (FCS).
B. Proliferation assay without DCs: 1×10^5 näive CD4 T cells were cultured with regulatory T cells at different ratios (1: 0.2, 1:0.1 and 1:0.05) in anti-CD3 mAb-coated (2 ug/ml) 96-well plates in the presence or absence of the following TLR ligands or cytokines: CpG-A (3 ug/ml), CpG-B (3 ug/ml), LPS (100 ng/ml), TNF.-α (20 ng/ml), IFN-α (100 ng/ml), or IL-6 (100 ng/ml). After 56 h of culture, [3H]thymidine was added at a final concentration of 1 uCi/well, followed by an additional 16 h of culture. The incorporation of [^3H]thymidine was measured with a liquid scintillation counter.
Näive CD4^+ T cell proliferation experiments were performed similar to those in FIG. 1A, but in the absence of DCs. […] The reversal effect of CpG-A (SEQ ID NO: 1) contrasts with the failure of CpG-B (SEQ ID NO: 2), LPS, TNF-α, IL-6 or IFN-α to block the suppressive activity of CD4^+ Treg cells against naive CD4^+ T cells (FIG. 1B).
To further define the CpG-A (SEQ ID NO: 1) sequences responsible for the observed reversal effect, CpG-NG (SEQ ID NO: 5) and Poly-G10 (SEQ ID NO: 6), were tested for their ability to reverse the suppressive function of Treg cells. Naive CD4^+ T cells were mixed with CD4^+ Treg cells in anti-CD3 antibody-coated 96-wells with 200 μl of medium containing CpG-NG (SEQ ID NO: 5), CpG-A (SEQ ID NO: 1) or Poly-G10 (SEQ ID NO: 6). The proliferation assay was conducted as described in FIG. 1. […] For the experiments shown in FIG. 2B, naive CD4^+ T cells were mixed with CD4^+ Treg cells in anti-CD3 antibody-coated 96-wells with 200 μl of medium containing Poly-A10 (SEQ ID NO: 7), Poly-T10 (SEQ ID NO: 9) or Poly-C10 (SEQ ID NO: 8), while the Poly-G10 (SEQ ID NO: 6) oligonucleotides served as a positive control.
A series of oligonucleotides with decreasing numbers of guanosine nucleosides was constructed to determine the minimal number required for the reversal effect. For the experiments in FIG. 2C, CD4^+ T cells were mixed with CD4^+ Treg cells in anti-CD3 antibody-coated 96-wells containing medium with protected phosphorothioate linked guanosine nucleoside containing oligonucleotides of various lengths, while the unprotected five guanosines (SEQ ID NO: 10) served as a control.

Q: With “Poly-A10: Poly-A oligonucleotide with the same protected phosphorothioate backbone (DNA dA*dA*dA*dA*dA*dA*dA*dA*dA*dA)” as the molecule, how does the “reversal of Treg cell-mediated suppression of naive CD4+ T cell proliferation” value (“reversal … of naive CD4+ T cell proliferation” for short) read?
A: failed to reverse the suppressive function of Treg cells; also recorded: lacked the ability to reverse the suppressive activity of Treg cells

Q: With “G5: unprotected five guanosines with a regular phosphodiester backbone (DNA GGGGG; unmodified DNA)” as the molecule, how does the “reversal … of naive CD4+ T cell proliferation” value read?
A: failed to reverse the suppressive activity of Treg cells

Q: With “T4G1: a single guanosine plus other nucleotides with protected phosphorothioate linkages (DNA dT*dT*dG*dT*dT)” as the molecule, how does the “reversal … of naive CD4+ T cell proliferation” value read?
A: found to reverse the suppressive activity of Treg cells

Q: With TNF-α as the molecule, how does the “reversal … of naive CD4+ T cell proliferation” value read?
A: failure

Q: How did the “reversal … of naive CD4+ T cell proliferation” value turn out when “Poly-C10: Poly-C oligonucleotide with the same protected phosphorothioate backbone (DNA dC*dC*dC*dC*dC*dC*dC*dC*dC*dC)” was run?
A: failed to reverse the suppressive function of Treg cells; also recorded: lacked the ability to reverse the suppressive activity of Treg cells

Q: “CpG-B: CpG-B oligonucleotide, ligand for TLR9 (DNA GGGGGAGCATGCTGCGGGGG; listed as DNA, chemistry not given here)” was tested. Which “reversal … of naive CD4+ T cell proliferation” value did it give?
A: failure

Q: With “C4G1: a single guanosine plus other nucleotides with protected phosphorothioate linkages (DNA dC*dC*dG*dC*dC)” as the molecule, how does the “reversal … of naive CD4+ T cell proliferation” value read?
A: found to reverse the suppressive activity of Treg cells

Q: With “CpG-NG: oligonucleotide derived from CpG-A, tested to define the sequences responsible for reversal (DNA AAAAGACGATCGTCAAAAAA; listed as DNA, chemistry not given here)” as the molecule, how does the “reversal … of naive CD4+ T cell proliferation” value read?
A: Treg suppression reversal was lost

Q: How did the “reversal … of naive CD4+ T cell proliferation” value turn out when “A4G1: a single guanosine plus other nucleotides with protected phosphorothioate linkages (DNA dA*dA*dG*dA*dA)” was run?
A: found to reverse the suppressive activity of Treg cells

tested on: antigen-specific Treg102 and Treg164 cells; experiment: TLR ligand assays: reversal of Treg suppression of naive CD4+ T cell proliferation; type: cell-based, human; settings: Treg102, Treg164 or naturally occurring CD4+CD25+ Treg cells (FIG. 4A-B)
Protocol: Näive CD4 T+cells were purified from PBMCs by using microbeads (Miltenvi Biotec). Näive CD4^+ T cells ([…]) were cultured with regulatory T cells at a ratio of 10:1 in OKT3 (2 ug/ml)-coated, U bottomed 96-well plates containing the following ligands: LPS (100 ng/ml), imiquimod (10 μg/ml), loxoribine (500 μM), poly(I:C) (25 μg/ml), ssRNA40/LyoVec (3 μg/ml), ssRNA33/LyoVec (3 μg/ml), pam3CSK4 (200 ng/ml) and flagellin (10 μg/ml) were purchased from Invivogene (San Diego, Calif.), while CpG-A (3 μg/ml), CpG-B (3 μg/ml) and Poly-G oligonucleotides (3 μg/ml) were synthesized in Integrated DNA Technologies, Inc (Coralville, Iowa). Functional assays were identical to those described above.
If the TLR8-MyD88-IRAK4 signaling pathway is necessary and sufficient for direct reversal of the suppressive function of Treg cells, it should be possible to produce that effect with natural ligands for human TLR8. For FIG. 4A-B, naive CD4^+ T cells were mixed with Treg102, Treg164 or naturally occurring CD4^+ CD25^+ Treg cells in anti-CD3 antibody-coated wells in the presence of different TLR ligands. Data are presented as means±SD and represent results from three independent experiments.

Q: For `C=CCn1c(=O)n([C@@H]2O[C@H](CO)[C@@H](O)[C@H]2O)c2nc(N)[nH]c(=O)c21` [loxoribine], which “restoration of proliferation of naive CD4+ T cells in the presence of Treg cells” value (“restoration” below) is on record?
A: failed to restore the proliferation of naive CD4^+ T cells

Q: For flagellin, which “restoration” value is on record?
A: failed to restore the proliferation of naive CD4^+ T cells

Q: With poly(I:C) as the molecule, how does the “restoration” value read?
A: failed to restore the proliferation of naive CD4^+ T cells

Q: With “CpG-B: CpG-B oligonucleotide, ligand for TLR9 (DNA GGGGGAGCATGCTGCGGGGG; listed as DNA, chemistry not given here)” as the molecule, how does the “restoration” value read?
A: failed to restore the proliferation of naive CD4^+ T cells

tested on: CD4+ Treg cells; experiment: Pretreatment of Treg cells, then proliferation assay with naive CD4+ T cells (without DCs); type: cell-based, human; settings: Treg cells pretreated 3 days, washed, then mixed with naive CD4+ T cells
Protocol: C. Pretreatment of Treg cells: 1×10^6 Treg cells were cultured in medium containing CpG-A (3 ug/ml), CpG-B (3 ug/ml), LPS (100 ng/ml), TNF.-α (20 ng/ml), IFN-α (100 ng/ml) or IL-6 (100 ng/ml) for 3 days. After three washes, the pretreated Treg cells were cultured with näive CD4^+ T cells in anti-CD3 mAb-coated plates (without DCs) to determine their suppressive function. After 56 h of culture, [3H]thymidine was added at a final concentration of 1 uCi/well, and cultured for an additional 16 h. The incorporation of [^3H]thymidine was measured with a liquid scintillation counter.
To exclude the possibility that the purified naive CD4^+ T cells might have been contaminated with a small number of monocytes or DCs, cultured CD4^+ Treg cells (100% purity) were pretreated with CpG-A (SEQ ID NO: 1) for 3 days. After three washes, the pretreated CD4^+ Treg cells were mixed with naive CD4^+ T cells in anti-CD3 antibody-coated plates to evaluate their ability to suppress the proliferation of naive CD4^+ T cells.
To determine whether the CpG motif in CpG A confers the ability to reverse the suppressive function of CD4^+ Treg cells, CD4^+ Treg cell lines were pretreated for 3 days with CpG-A (SEQ ID NO: 1), non-CpG-A (CG changed to GC in CpG-A; SEQ ID NO: 3), CpG B (SEQ ID NO: 2) or non-CpG-B (CG changed to GC in CpG-B; SEQ ID NO: 4), and used them in proliferation assays following extensive washes.
Treg cells were pretreated with Poly-G2 (SEQ ID NO: 15) in different concentrations of chloroquine to examine whether acidification is required for the function of guanosine containing oligonucleotides. After extensive washes, the pretreated Treg cells were used for functional assays.

Q: How did the “reversal of suppressive function of CD4+ Treg cells after pretreatment” value turn out when “non-CpG-B: CG changed to GC in CpG-B (DNA TGCTGCTTTTGTGCTTTTGTGCTT; listed as DNA, chemistry not given here)” was run?
A: lacked any discernible effect

Q: How did the “reversal of suppressive function of CD4+ Treg cells after pretreatment” value turn out when “CpG-B: CpG-B oligonucleotide, ligand for TLR9 (DNA GGGGGAGCATGCTGCGGGGG; listed as DNA, chemistry not given here)” was run?
A: lacked any discernible effect

same assay, conditions: pretreatment together with chloroquine

Q: “Poly-G2: guanosine containing oligonucleotide (DNA AAGGA; listed as DNA, chemistry not given here)” was tested. Which “reversal effect with Treg cells pretreated in different concentrations of chloroquine” value did it give?
A: decreased with increasing concentrations of chloroquine

Reference: US20090209620A1, “Direct Reversal Of The Suppressive Function Of CD4+Regulatory T Cells Via Toll-Like Receptor 8 Signaling” (priority 2005, published 2009)
